Converted amounts (≈) assume the structure as drawn. Where two headings read alike, the source gives them in different places.
Assays:
[1] = Pharmacokinetic properties in rats (blood concentration by agar well biological assay); design: species or system SD rats (male); conditions: rat, in vivo, iv, 20 mg/kg
Protocol: The pharmacokinetic properties of the compound of the present invention were determined using SD rats (.male.) weighing 230±10 g. Specifically,the test samples were injected into femoral vein in an amount of 20 mg/kg to 4 to 5 test animals. Blood was taken from femoral vein 1, 2.5, 5, 10, 20, 40, 60, 120 and 180 minutes after administration and then subjected to a biological assay using agar well method to measure the blood concentration.

[2] = system: Staphylococcus aureus 241; test: Minimum inhibitory concentration (agar 2-fold dilution); assay type: cell-based; conditions: Staphylococcus aureus; S. aureus 241; Muller-Hinton agar, 37° C., 20 hours; read-out: Minimum Inhibitory Concentration
Protocol: (§1) The minimum inhibitory concentration was determined by diluting the test compounds according to 2-fold dilution, suspending them in Muller-Hinton agar medium, inoculating 2 μl of the suspension containing the test strains having 10^7 CFU (Colony Forming Unit) per 1 ml into the medium and then culturing the test strains at 37° C. for 20 hours.

[3] = system: Staphylococcus aureus epidermidis 887E; test: as above; assay type: cell-based; conditions: S. aureus epidermidis 887E, Muller-Hinton agar, 37° C., 20 hours, read-out: Minimum Inhibitory Concentration
Protocol: as §1

[4] = system: Escherichia coli TEM7 3457E; test: as above; assay type: cell-based; conditions: TEM73457E, 20 h, read-out: Minimum Inhibitory Concentration
Protocol: as §1

[5] = system: Escherichia coli TEM3 3455E; test: as above; assay type: cell-based; conditions: TEM33455E, 20 h, read-out: Minimum Inhibitory Concentration
Protocol: as §1

[6] = system: Citrobacter diversus 2046E; test: as above; assay type: cell-based; conditions: Citrobacter koseri; C. diversus 2046E; Muller-Hinton agar, 37° C., 20 hours; read-out: Minimum Inhibitory Concentration
Protocol: as §1

[7] = system: Enterobacter cloacae IND + VE 1194E; test: as above; assay type: cell-based; conditions: E. cloacae IND + VE 1194E, Muller-Hinton agar, 37° C., 20 hours, read-out: Minimum Inhibitory Concentration
Protocol: as §1

[8] = system: Staphylococcus aureus giorgio; test: as above; assay type: cell-based; conditions: read-out: Minimum Inhibitory Concentration
Protocol: as §1

Escherichia coli 851E = test: as above; assay type: cell-based; conditions: E. coli 851E, Muller-Hinton agar, 37° C., 20 hours
Protocol: as §1

[9] = system: Streptococcus faecalis 29212A; test: as above; assay type: cell-based; conditions: Enterococcus faecalis; S. faecalis 29212A; Muller-Hinton agar, 37° C., 20 hours; read-out: Minimum Inhibitory Concentration
Protocol: as §1

[10] = system: Serratia marcescens 1826E; test: as above; assay type: cell-based; conditions: S. marcescens 1826E, Muller-Hinton agar, 37° C., 20 hours, read-out: Minimum Inhibitory Concentration
Protocol: as §1

[11] = system: Escherichia coli TEM5 3739E; test: as above; assay type: cell-based; conditions: TEM53739E, 20 h, read-out: Minimum Inhibitory Concentration
Protocol: as §1

[12] = system: Klebsiella aerogenes K1 + 1082E; test: as above; assay type: cell-based; conditions: 20 h, read-out: Minimum Inhibitory Concentration
Protocol: as §1

Escherichia coli 3190Y = test: as above; assay type: cell-based; conditions: read-out: Minimum Inhibitory Concentration
Protocol: as §1

[13] = system: Escherichia coli TEM9 2639E; test: as above; assay type: cell-based; conditions: TEM92639E, 20 h, read-out: Minimum Inhibitory Concentration
Protocol: as §1

Proteus vulgaris 6059A = test: as above; assay type: cell-based; conditions: P. vulgaris 6059A, Muller-Hinton agar, 37° C., 20 hours, read-out: Minimum Inhibitory Concentration
Protocol: as §1

[14] = system: Staphylococcus aureus 6538P; test: as above; assay type: cell-based; conditions: S. aureus 6538P, Muller-Hinton agar, 37° C., 20 hours, read-out: Minimum Inhibitory Concentration
Protocol: as §1

Staphylococcus aureus 77 = test: as above; assay type: cell-based; conditions: Staphylococcus aureus; S. aureus 77; Muller-Hinton agar, 37° C., 20 hours; read-out: Minimum Inhibitory Concentration
Protocol: as §1

[15] = system: Pseudomonas aeruginosa 6065; test: as above; assay type: cell-based; conditions: Pseudomonas aeruginosa; P. aeruginosa 6065; Muller-Hinton agar, 37° C., 20 hours; read-out: Minimum Inhibitory Concentration
Protocol: as §1

[16] = system: Pseudomonas aeruginosa 10145; test: as above; assay type: cell-based; conditions: Pseudomonas aeruginosa; P. aeruginosa 10145; Muller-Hinton agar, 37° C., 20 hours; read-out: Minimum Inhibitory Concentration
Protocol: as §1

[17] = system: Escherichia coli TEM1 1193E; test: as above; assay type: cell-based; conditions: TEM11193E, 20 h, read-out: Minimum Inhibitory Concentration
Protocol: as §1

[18] = system: Pseudomonas aeruginosa 1912E; test: as above; assay type: cell-based; conditions: P. aeruginosa 1912E, Muller-Hinton agar, 37° C., 20 hours, read-out: Minimum Inhibitory Concentration
Protocol: as §1

[19] = system: Salmonella typhimurium 14028A; test: as above; assay type: cell-based; conditions: Salmonella enterica; S. typhimurium 14028A; Muller-Hinton agar, 37° C., 20 hours; read-out: Minimum Inhibitory Concentration
Protocol: as §1

Enterobacter cloacae P99 = test: as above; assay type: cell-based; conditions: P99, 20 h, read-out: Minimum Inhibitory Concentration
Protocol: as §1

Escherichia coli 10536 = test: as above; assay type: cell-based; conditions: Escherichia coli; E. coli 10536; Muller-Hinton agar, 37° C., 20 hours; read-out: Minimum Inhibitory Concentration
Protocol: as §1

[20] = system: Acinetobacter calcoaceticus 15473A; test: as above; assay type: cell-based; conditions: A. calcoaceticus 15473A, Muller-Hinton agar, 37° C., 20 hours, read-out: Minimum Inhibitory Concentration
Protocol: as §1

[21] = system: Klebsiella aerogenes SHV-1 1976E; test: as above; assay type: cell-based; conditions: SHV11976E, K. aerogenes SHV-1 1976E, Muller-Hinton agar, 37° C., 20 hours
Protocol: as §1

SMILES	AUC [1]	half-life [1]	MIC [2]	MIC [3]	MIC [4]	MIC [5]	MIC [6]	MIC [7]	MIC (Escherichia coli 851E)	MIC [9]	MIC [10]	MIC [11]	MIC [12]	MIC [13]	MIC (Proteus vulgaris 6059A)	MIC [14]	MIC (Staphylococcus aureus 77)	MIC [15]	MIC [16]	MIC [17]	also measured
Nc1cc(N)[n+](C/C=C/C2=C(C(=O)[O-])N3C(=O)[C@@H](NC(=O)/C(=N\O[C@H](C(=O)O)c4ccc(O)c(O)c4)c4csc(N)n4)[C@H]3SC2)cn1 [Compound I-1a, 7-[(Z)-2-(2-aminothiazol-4-yl)-2-(α-carboxy-3,4-dihydroxybenzyloxyimino)acetamido]-3-[(E)-3-(4,6-diaminopyrimidinium-1-yl)-1-propen-1-yl]-3-cephem-4-carboxylate]	32700 ng·h/mL	34 min	64 µg/mL (≈ 93.6 µM)	64 µg/mL (≈ 93.6 µM)	0.13 µg/mL (≈ 0.19 µM)	0.13 µg/mL (≈ 0.19 µM)	0.13 µg/mL (≈ 0.19 µM)	4 µg/mL	0.031 µg/mL (≈ 0.0453 µM)	4 µg/mL (≈ 5.85 µM)	0.25 µg/mL (≈ 0.366 µM)	0.5 µg/mL (≈ 0.731 µM)	0.063 µg/mL (≈ 0.0921 µM)	2 µg/mL (≈ 2.93 µM)	0.063 µg/mL (≈ 0.0921 µM)	0.5 µg/mL (≈ 0.731 µM)	4 µg/mL (≈ 5.85 µM)	1 µg/mL (≈ 1.46 µM)	0.25 µg/mL (≈ 0.366 µM)	0.031 µg/mL (≈ 0.0453 µM)	MIC ([8]; S. aureus giorgio, Muller-Hinton agar, 37° C., 20 hours): 0.5 µg/mL (≈ 0.731 µM); MIC (Escherichia coli 3190Y; E. coli 3190Y, Muller-Hinton agar, 37° C., 20 hours): 0.031 µg/mL (≈ 0.0453 µM); MIC [18]: 0.5 µg/mL (≈ 0.731 µM); MIC [19]: 0.016 µg/mL (≈ 0.0234 µM); MIC (Enterobacter cloacae P99): 32 µg/mL (≈ 46.8 µM); MIC (Escherichia coli 10536): ≤ 0.008 µg/mL; MIC [20]: 1 µg/mL (≈ 1.46 µM); MIC [21]: 0.13 µg/mL (≈ 0.19 µM)
Nc1cc[n+](C/C=C/C2=C(C(=O)[O-])N3C(=O)[C@@H](NC(=O)/C(=N\O[C@H](C(=O)O)c4ccc(O)c(O)c4)c4csc(N)n4)[C@H]3SC2)cn1 [Compound I-2a, 7-[(Z)-2-(2-aminothiazol-4-yl)-2-(α-carboxy-3,4-dihydroxybenzyloxyimino)acetamido]-3-[(E)-3-(4-aminopyrimidinium-1-yl)-1-propen-1-yl]-3-cephem-4-carboxylate]	53600 ng·h/mL	55 min	128 µg/mL (≈ 191 µM)	32 µg/mL (≈ 47.9 µM)	0.031 µg/mL (≈ 0.0464 µM)	0.063 µg/mL (≈ 0.0942 µM)	0.13 µg/mL (≈ 0.194 µM)	1 µg/mL	0.063 µg/mL (≈ 0.0942 µM)	4 µg/mL (≈ 5.98 µM)	0.5 µg/mL (≈ 0.748 µM)	0.5 µg/mL (≈ 0.748 µM)	0.13 µg/mL (≈ 0.194 µM)	1 µg/mL (≈ 1.5 µM)	0.063 µg/mL (≈ 0.0942 µM)	0.5 µg/mL (≈ 0.748 µM)	4 µg/mL (≈ 5.98 µM)	4 µg/mL (≈ 5.98 µM)	0.25 µg/mL (≈ 0.374 µM)	0.063 µg/mL (≈ 0.0942 µM)	MIC ([8]; 20 h): 0.25 µg/mL (≈ 0.374 µM); MIC (Escherichia coli 3190Y; 3190Y, 20 h): 0.063 µg/mL (≈ 0.0942 µM); MIC [18]: 0.5 µg/mL (≈ 0.748 µM); MIC [19]: 0.03 µg/mL (≈ 0.0449 µM); MIC (Enterobacter cloacae P99): 8 µg/mL (≈ 12 µM); MIC (Escherichia coli 10536): 0.016 µg/mL (≈ 0.0239 µM); MIC [20]: 0.5 µg/mL (≈ 0.748 µM); MIC [21]: 0.5 µg/mL (≈ 0.748 µM)
